Test results as given in patent US20240366535A1, “FORMULATION WITH IMPROVED BIOAVAILABILITY” (MERRY LIFE BIOMEDICAL COMPANY, LTD., priority 2023, published 2024).

What was measured:
[1] = Pharmacokinetics (PK) studies in rats, single oral dose; format: in vivo; conditions: male, Sprague-Dawley, TML-6 in rat plasma, 25.0 mg/kg single dose, 0.5% MC suspension
Procedure: The objective of this study is to obtain the pharmacokinetic profiles of TML-6 API (unformulated, crystalline), TML-6 formulation E02 (crystalline) and TML-6 formulations E10, E12 and E13 (amorphous) though oral (PO) doses when administrated to 6-8 week old male Sprague-Dawley rats (BioLASCO Taiwan Co. Ltd). A study design of five doses on rats. Animals received a single dose of TML-6 API, TML-6 formulations E02, E10, E12 and E13 at 25 mg/kg via oral gavage.
Dosing Solution Preparation: The TML-6 API, E02, E10, E12 and E13 oral formulations were prepared by suspending these TML6 formulated powder in the aqueous vehicle composed of 0.5% methylcellulose (MC) to the concentration of 2.5 mg/mL TML-6, respectively.
Plasma Sample Preparation and Bioanalysis Serial blood samples were collected from all animals through the tail veins. Approximately 0.2 mL blood samples were collected at each following time points: predose and 0.083, 0.25, 0.5, 1, 2, 4, 6, 8, 10 and 24 hours post-dose. Separation of plasma was prepared by centrifugation (1,000×g for 15 minutes at 4° C.) after blood sampling. Concentrations of TML-6 in rat plasma were determined by liquid chromatography-tandem mass spectrometry (LC-MS/MS), as shown in FIGS. 6 and 7. The lower limit of quantification (LLOQ) was 0.1 ng/mL. […]

[2] = Dissolution test in medium simulating gastric juice (0.1N HCl), 30 min; format: physicochemical; conditions: Medium 0.1N HCl
Procedure: (§1) Dissolution Test in 0.1 HCl and pH 6.8 Phosphate Buffer, 30 Min
(§2) The dissolution of TML-6 (API alone) and TML-6 formulations (E01 to E12) were measured in mediums simulating gastric juice for 30 mins, and the results are as shown in Table 5 and 6. The dissolution of TML-6 (API alone) and TML-6 formulations (E13 to E17) were measured in mediums simulating intestinal juice for 30 mins, and the results are as shown in Table 6.

[3] = Dissolution test in medium simulating intestinal juice (pH 6.8 phosphate buffer), 30 min; format: physicochemical; conditions: Medium pH 6.8 Phosphate Buffer
Procedure: as §1, §2

AUC(0-inf) [1]: 73.6 ng·h/mL | Cmax [1]: 25.3 ng/mL | Dissolution within 30 min [2]: 0.1% | Dissolution within 30 mins [3]: 0.06%
Compound: CCN(CC)C(=O)CC(C)(C(=O)/C=C/c1ccc(OC)c(OC)c1)C(=O)/C=C/c1ccc(OC)c(OC)c1 [API alone]
